In US9511010B2, “Compounds useful in the treatment and/or care of the skin, hair and/or mucous membranes and their cosmetic or pharmaceutical compositions” (Lubrizol Advanced Materials, Inc., priority 2012, dated 2016):

Tests used:
[1] = system: Adult human epidermal keratinocytes (HEKa); test: Profile of the gene expression of human epidermal keratinocytes (microarray); assay type: cell-based; conditions: 0.1 mg/ml, 24 hours, vs untreated cells
Procedure: Adult human epidermal keratinocytes (HEKa) were seeded (15×10^4 cells/vial cells/vial T25 cm^2), and were incubated in complete Epilife medium for 7 days at 37° C. in an atmosphere with 5% CO2. After the incubation, the cells were treated for 24 hours at 37° C. in an atmosphere with 5% CO2 with 0.1 mg/ml of the compound Ac-L-Tyr-L-Glu-L-Lys-L-Leu-L-Gln-L-Val-NH2 (Ac-SEQ ID NO:22-NH2) in complete Epilife medium or in complete Epilife medium as a negative control. The incubations and the treatments were carried out in duplicate for each condition.
24 hours after the treatments, the cells were homogenized and the RNA was extracted and purified from each replica and each condition by means of the RNeasyPlus Mini kit by Qiagen. Briefly, RNases were inactivated from cells lysates and samples were passed through special RNA binding columns to eliminate contaminants and impurities and after several microcentrifugation washes, the purified RNA was eluted with 50 μl of ultrapure water. The purity, integrity and concentration of the RNA obtained was evaluated by means of spectrophotometry (Nanodrop) and with a bioanalyzer (Agilent Bioanalyzer).
The marking of the purified RNA was carried out as was the hybridization of the samples in a human gene expression microarray (ASurePrint G3, Agilent). The normalized values obtained with the treatment were compared with the normalized values obtained with the negative control to obtain genes with differential expression. Next, a parametric analysis of the data was carried out by means of the Bioconductor software. Then, the values obtained were evaluated by means of GSEA (Gene Set Analysis Enrichment) to group the genes with differential expression in terms of Gene Ontology. Biological Routes and most significant pathways with a False Discovery Rate (FDR) lower than 25% were selected.

HDFa cells = test: Photoprotective effectiveness in human fibroblasts (Neutral Red viability after solar simulation irradiation); assay type: cell-based; conditions: for Effectiveness Photoprotection (%): irradiated; for Cell viability: preincubated 1 hour, irradiated ~60 J/cm^2, irradiated control 50.72%
Procedure: HDFa cells were put in culture medium for 24 hours in 96-well plates to form monolayers. Afterwards the cells were preincubated in darkness with 0.5 mg/mL, 0.1 mg/mL, 0.01 mg/mL of Ac-L-Tyr-L-Glu-L-Lys-L-Leu-L-Gln-L-Val-NH2 (Ac-SEQ ID NO:22-NH2) in PBS or PBS alone (control) for 1 hour at 37° C. and humidified air with 5% CO2.
The cells were irradiated with a solar simulation lamp at ˜60 J/cm^2 for 210 min at room temperature. A control plate was kept in the dark for the same time at room temperature. Once irradiation was completed the culture medium was changed for a new one and the plates were incubated for another 24 hours.
The cell viability was determined with the Neutral Red dye, measuring the absorbency at 540 nm in a spectrophotometer.
The photoprotective effectiveness was determined by comparing the viability obtained in cells treated with Ac-L-Tyr-L-Glu-L-Lys-L-Leu-L-Gln-L-Val-NH2 (Ac-SEQ ID NO:22-NH2) with the irradiated and non-irradiated control cell response.

FOXO response elements = test: Stimulation of the expression of proteins regulated by FOXO: luciferase reporter under FOXO response elements; assay type: cell-based, human; conditions: 0.5 mg/mL, 24 hours; carrier (0.05% DMSO) = 100
Procedure: The activation capacity of the FOXO response elements was evaluated in a human epithelial cell line stably transfected with the luciferase gene under the control of a regulatory sequence which contains different FOXO response elements which are in the promoters of the FOXO target genes. The activation capacity of the FOXO response elements indicates the expression of proteins regulated by FOXO. 30,000 cells per well were seeded in a total volume of 100 μL of RPMI 1640 culture medium. After 24 hours the cells with RPMI 1640 culture medium were washed and were incubated with the compounds of the invention at 0.5 mg/mL for 24 hours in a total volume of 100 μL per well. The carrier in which the compounds of the invention were dissolved was used (0.05% DMSO) as a negative control.
The measurement of the activity of the promoter was carried out using the Steady-Go Luciferase Assay System kit following the manufacturer's instructions. The luminescence values (RLU/sec) caused by the reaction between luciferase and the substrate were quantified with a luminometer and normalized by the cell number (absorbance at 630 nm), and the activity of the promoter was determined, which was standardized with regard to the negative control values.
Each experiment was carried out three times in 3 independent experiments.

For “Ac-YEKLQV-NH2 [Ac-SEQ ID NO: 22-NH2, Ac-L-Tyr-L-Glu-L-Lys-L-Leu-L-Gln-L-Val-NH2]”, the “% Expression induction, ACD” value ([1]; gene ACD, LONGEVITY, TELOMERE MAINTENANCE AND PROTECTION) was 10.76%, the “% Expression induction, AIF1” value ([1]; gene AIF1, INFLAMMATION, ANTI-INFLAMMATORY RESPONSE) was 19.02% and the “% Expression induction, ANXA1” value ([1]; gene ANXA1, INFLAMMATION, ANTI-INFLAMMATORY RESPONSE) was 8.22%. For the same substance, the “% Expression induction, ANXA4” value ([1]; gene ANXA4, INFLAMMATION, ANTI-INFLAMMATORY RESPONSE) was 17.69%, the “% Expression induction, ANXA5” value ([1]; gene ANXA5, INFLAMMATION, ANTI-INFLAMMATORY RESPONSE) was 22.32% and the “% Expression induction, ATM” value ([1]; gene ATM, CELL CYCLE) was 48.53%. For the same substance, the “% Expression induction, ATRX” value ([1]; gene ATRX, HELICASE ACTIVITY and ATPase ACTIVITY) was 48.65%, the “% Expression induction, BAG4” value ([1]; gene BAG4, APOPTOSIS INHIBITION) was 32.42% and the “% Expression induction, BAX” value ([1]; gene BAX, APOPTOSIS INHIBITION) was −60.73%. The “% Expression induction, BCL2” value ([1]; gene BCL2, APOPTOSIS INHIBITION) was 59.91%, the “% Expression induction, BCL2L2” value ([1]; gene BCL2L2, APOPTOSIS INHIBITION) was 32.49% and the “% Expression induction, BIRC3” value ([1]; gene BIRC3, APOPTOSIS INHIBITION) was 16.84%. The “% Expression induction, BIRC6” value ([1]; gene BIRC6, APOPTOSIS INHIBITION) was 73.14%, the “% Expression induction, BNIP2” value ([1]; gene BNIP2, APOPTOSIS INHIBITION) was 30.68% and the “% Expression induction, BNIP3L” value ([1]; gene BNIP3L, APOPTOSIS INHIBITION) was 31.39%. For the same substance, the “% Expression induction, CASP3” value ([1]; gene CASP3, APOPTOSIS ACTIVATION) was 31.18%, the “% Expression induction, CDK7” value ([1]; gene CDK7, DNA repair, Protein DNA Complex Assembly) was 14.31% and the “% Expression induction, CHD1” value ([1]; gene CHD1, HELICASE ACTIVITY and ATPase ACTIVITY) was 40.46%. The “% Expression induction, CHD2” value ([1]; gene CHD2, HELICASE ACTIVITY and ATPase ACTIVITY) was 42.59%, the “% Expression induction, DDX1” value ([1]; gene DDX1, HELICASE ACTIVITY and ATPase ACTIVITY) was 26.92% and the “% Expression induction, DDX10” value ([1]; gene DDX10, HELICASE ACTIVITY and ATPase ACTIVITY) was 27.49%. For the same substance, the “% Expression induction, DDX25” value ([1]; gene DDX25, HELICASE ACTIVITY and ATPase ACTIVITY) was 16.24%, the “% Expression induction, ERCC6” value ([1]; gene ERCC6, HELICASE ACTIVITY and ATPase ACTIVITY) was 74.50% and the “% Expression induction, ERCC8” value ([1]; gene ERCC8, DNA repair, Protein DNA Complex Assembly) was 8.90%. The “% Expression induction, FAS” value ([1]; gene FAS, APOPTOSIS INHIBITION) was −15.36%, the “% Expression induction, IL6” value ([1]; gene IL6, INFLAMMATION, ANTI-INFLAMMATORY RESPONSE) was −26.30% and the “% Expression induction, MAPK8” value ([1]; gene MAPK8, APOPTOSIS INHIBITION) was −33.72%. The “% Expression induction, MCL1” value ([1]; gene MCL1, APOPTOSIS ACTIVATION) was −17.76%, the “% Expression induction, MED4” value ([1]; gene MED4, DNA repair, Protein DNA Complex Assembly) was 28.80% and the “% Expression induction, MED13” value ([1]; gene MED13, DNA repair, Protein DNA Complex Assembly) was 56.75%. For the same substance, the “% Expression induction, MED14” value ([1]; gene MED14, DNA repair, Protein DNA Complex Assembly) was 32.54%, the “% Expression induction, MED17” value ([1]; gene MED17, DNA repair, Protein DNA Complex Assembly) was 46.25% and the “% Expression induction, MNAT1” value ([1]; gene MNAT1, DNA repair, Protein DNA Complex Assembly) was 17.84%. For the same substance, the “% Expression induction, MSH4” value ([1]; gene MSH4, CELL CYCLE) was 33.28%, the “% Expression induction, MYC” value ([1]; gene MYC, APOPTOSIS ACTIVATION) was 41.70% and the “% Expression induction, NLRP3” value ([1]; gene NLRP3, INFLAMMATION, ANTI-INFLAMMATORY RESPONSE) was 36.49%. For the same substance, the “% Expression induction, NLRP12” value ([1]; gene NLRP12, INFLAMMATION, ANTI-INFLAMMATORY RESPONSE) was 39.96%, the “% Expression induction, PAPD7” value ([1]; gene PAPD7, DNA POLYMERASE ACTIVITY) was 65.27% and the “% Expression induction, POLA1” value ([1]; gene POLA1, DNA POLYMERASE ACTIVITY) was 29.28%. The “% Expression induction, POLD4” value ([1]; gene POLD4, DNA POLYMERASE ACTIVITY) was 31.74%, the “% Expression induction, POLH” value ([1]; gene POLH, DNA POLYMERASE ACTIVITY) was 28.96% and the “% Expression induction, PTEN” value ([1]; gene PTEN, other genes involved in LONGEVITY) was 26.04%. For the same substance, the “% Expression induction, RAD17” value ([1]; gene RAD17, CELL CYCLE) was 0.21%, the “% Expression induction, RAD21” value ([1]; gene RAD21, CELL CYCLE) was 18.22% and the “% Expression induction, RAD50” value ([1]; gene RAD50, CELL CYCLE) was 37.66%. For the same substance, the “% Expression induction, RAD54B” value ([1]; gene RAD54B, CELL CYCLE) was 26.20%, the “% Expression induction, SETX” value ([1]; gene SETX, HELICASE ACTIVITY and ATPase ACTIVITY) was 65.33% and the “% Expression induction, SH3GLB1” value ([1]; gene SH3GLB1, APOPTOSIS ACTIVATION) was 52.57%. For the same substance, the “% Expression induction, SMARCA1” value ([1]; gene SMARCA1, HELICASE ACTIVITY and ATPase ACTIVITY) was 29.62%, the “% Expression induction, SOCS2” value ([1]; gene SOCS2, INFLAMMATION, ANTI-INFLAMMATORY RESPONSE) was 56.13% and the “% Expression induction, TAF1” value ([1]; gene TAF1, DNA repair, Protein DNA Complex Assembly) was 65.00%. For the same substance, the “% Expression induction, TAF2” value ([1]; gene TAF2, DNA repair, Protein DNA Complex Assembly) was 25.12%, the “% Expression induction, TAF5” value ([1]; gene TAF5, DNA repair, Protein DNA Complex Assembly) was 8.18% and the “% Expression induction, TAX1BP1” value ([1]; gene TAX1BP1, APOPTOSIS INHIBITION) was 19.23%. The “% Expression induction, TEP1” value ([1]; gene TEP1, LONGEVITY, TELOMERE MAINTENANCE AND PROTECTION) was 38.49%, the “% Expression induction, TERF1” value ([1]; gene TERF1, LONGEVITY, TELOMERE MAINTENANCE AND PROTECTION) was 7.38% and the “% Expression induction, TERF2IP” value ([1]; gene TERF2IP, LONGEVITY, TELOMERE MAINTENANCE AND PROTECTION) was 21.63%. The “% Expression induction, TINF2” value ([1]; gene TINF2, LONGEVITY, TELOMERE MAINTENANCE AND PROTECTION) was 13.37%, the “% Expression induction, TP53BP2” value ([1]; gene TP53BP2, APOPTOSIS ACTIVATION) was 22.34% and the “% Expression induction, WRN” value ([1]; gene WRN, HELICASE ACTIVITY and ATPase ACTIVITY) was 35.25%. The “% Expression induction, XIAP” value ([1]; gene XIAP, APOPTOSIS INHIBITION) was 51.98%, the “% Expression induction, XRCC2” value ([1]; gene XRCC2, CELL CYCLE) was 24.95% and the “Effectiveness Photoprotection (%)” value (HDFa cells; 0.01 mg/mL) was 16.24%. The Cell viability (HDFa cells; 0.01 mg/mL) was 58.96%, the “Effectiveness Photoprotection (%)” value (HDFa cells; 0.1 mg/mL) was 20.06% and the Cell viability (HDFa cells; 0.1 mg/mL) was 60.90%. The “Effectiveness Photoprotection (%)” value (HDFa cells; 0.5 mg/mL) was 35.10%, the Cell viability (HDFa cells; 0.5 mg/mL) was 68.52% and the “Stimulation Average (%) of the activation of the FOXO response factors” value (FOXO response elements) was 186%.
